From patent US11028084B2, “Selective inhibitors of gentotoxic steress-induced IKK/NF-κB pathways” (Max-Delbrück-Centrum für Molekulare Medizin in der …, priority 2016, dated 2021)

Legend:
Format in all cases: cell-based, human
[1] = tested on: ATM cytoplasmic translocation; experiment: ATM relocalisation upon DNA DSB, immunofluorescence, U2OS cells
Protocol: FIG. 7: Cytoplasmic accumulation of ATM. (A) Fractionation experiment with separated nuclear extracts (NE) and cytoplasmic extracts (CE). PARP1 and LDH staining served as loading and fractionation controls. Cells were pre-treated with DMSO or MW01 (5 μM) prior to irradiation and cell harvesting at indicated times. NE and CE were subjected to SDS-PAGE/WB procedure. (B) U2OS cells were seeded on cover slips 2 days before treatment. The cells were pre-treated with solvent DMSO alone or with MW01 prior to irradiation, cell fixation and subsequent immunofluorescence staining.
For immunofluorescence staining 0.95×10^5 cells were seeded in 6 well plates onto autoclaved cover slips. Cellular confluency dictated to beginning of the experiment (2-3 days from seeding). After conduction of experiments cells were washed with PBS and fixed with 4% PFA/double-distilled H2O (ddH2O) for 10 min at RT. Following two additional washing steps cells were incubated with a solution containing 0.12% glycine/0.2% saponin in PBS for 10 min and then blocked with a solution containing 10% FCS/0.2% saponin in PBS for 1 h. Primary antibody incubation was performed overnight at 4° C. (1:500 diluted in 0.2% saponin in PBS). The next day, cover slips were washed five times with a solution containing 0.2% saponin in PBS. […]

U2OS cells [2] = experiment: Caspase-3-dependent cleavage of PARP1, WB, U2OS cells
Protocol: FIG. 16: (A) U2OS cells were pre-treated with DMSO or MW01 and irradiated. Cells were lysed 8 h post γ-IR and were used for western blotting and immunochemical staining. (B) HEK293 cells were pre-treated with DMSO or MW01 and irradiated. After 48 h cells were fixed and stained with crystal violet. Dissolved crystal violet was used for absorbance measurement in a visible light spectrophotometer at a wavelength of 595 nm. (C) HEK293 cells were pre-treated with DMSO or MW01 and irradiated. The percentage of viable cells within the population was calculated by exclusion of annexin V and propidium-iodide positive cells measured by flow cytometry. (D) MEF cells were pre-treated with DMSO or MW01 and irradiated. Cells were used for annexin V staining 24 h and 48 after γ-IR. Percentage of annexin V positive cell population was analysed using a flow cytometer. (E) Experiment done as shown in (D) but with HT1080 cells processed 8 h after irradiation. Statistical significance was calculated using students t-test.

U2OS cells [3] = experiment: qRT-PCR of anti- and pro-apoptotic genes after γ-IR, U2OS cells
Protocol: FIG. 15: (A), (B) U2OS cells were pre-treated with DMSO or MW01 and irradiated. After 8 h mRNA was isolated and reversely transcribed into cDNA. The obtained cDNA was used to perform qRT-PCR using gene specific exon-exon-spanning primers for mRNA of anti-apoptotic (A) and pro-apoptotic genes (B).
(§1) To quantitate specific mRNA (messenger RNA) species in samples RNA was isolated, RNA concentration was measured and mRNA was transcribed into cDNA. The amount of mRNA transcripts of certain genes within a sample was quantified by employing gene specific primers and using a C-1000 Thermal cycler (Biorad). The expression of genes of interest was normalised against two or three reference genes (HRPT1, RPL_13a and B2M) using the CFX manager software. The fold induction of mRNA was calculated over untreated sample levels by the ΔΔ-Ct method.

[4] = tested on: NF-κB target genes NFKBIA, TNFAIP3, CXCL8; experiment: qRT-PCR of NF-κB target genes after irradiation, U2OS cells; conditions: 90 min after irradiation
Protocol: FIG. 14: (A) U2OS cells were pre-treated with different concentrations of olaparib prior to co-treatment with etoposide. Whole cell lysis was performed after 90 min and cleared lysates were used for WB with indicated antibodies. (B) U2OS cells were pre-treated with DMSO, olaparib or the ATM inhibitor Ku55933 and co-treated with etoposide. Cells were harvested after 45 min and subjected to SDS-PAGE/WB. Membranes were stained with the indicated antibodies. The experiment of (B) was performed simultaneously to the experiments of (A) and (E) to control functionality of olaparib in inhibiting PAR chain formation. (C) Densitometrical analyses of (A) and two further independent experiments done as shown in (A). (D) U2OS cells were pre-treated with the substances as indicated prior to irradiation. After 90 min mRNA was isolated, transcribed into cDNA and was used for expression analyses of the indicated genes using quantitative real-time PCR (qRT-PCR). (E) HepG2 cells were pre-treated with the PARP inhibitors olaparib, 3-AB and EB-47 prior to γ-irradiation. Cells were harvested after 15 and 90 min and subjected to SDS-PAGE/WB. Membranes were stained with the indicated antibodies. Error bars equal SEM.
as §1

Question: Which results are given for COc1ccc2c(c1OC)c(=O)n1c3ccc(O)cc3c3ccnc2c31 [MW01, 12-hydroxy-6,7-dimethoxy-8H-benzo[c]indolo[3,2,1-ij][1,5]naphthyridin-8-one]?
Answer: ATM localisation after irradiation (IF) [1]: predominantly localized within the nucleus; PARP1 cleavage (U2OS cells [2]; 8 h post γ-IR): strongly increased; PARP1 cleavage (U2OS cells [2]; resting cells): slight increase; BIRC3 mRNA (U2OS cells [3]; 8 h after γ-IR): down-regulated; expression of BCL2L1 mRNA (U2OS cells [3]; 8 h after γ-IR): fully inhibited; expression of XIAP mRNA (U2OS cells [3]; 8 h after γ-IR): moderately inhibited; BBC3 mRNA expression, induction (U2OS cells [3]; after irradiation): 3 fold; PMAIP1 mRNA expression (U2OS cells [3]; after irradiation): further elevated; mRNA expression of TNFAIP3 (U2OS cells [3]; after γ-IR, in comparison to irradiated controls): abolished mRNA expression; mRNA expression of PMAIP1 (U2OS cells [3]; pre-treatment without irradiation): already increased; BBC3 mRNA expression (U2OS cells [3]; without irradiation): not influenced; mRNA expression of BIRC3, XIAP or BCL2L1 in comparison to the DMSO control (U2OS cells [3]; without irradiation): did not significantly change; NFKBIA, TNFAIP3 and CXCL8 mRNA induction upon irradiation [4]: complete inhibition
